From ChEMBL document CHEMBL1201862, “PubChem BioAssay data set” (2004)
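Grown in 96-well plates, cells were treated for 48 hours with each compound at five concentrations. Insufficient inhibition: endpoint recorded as highest concentration tested. GI50 = concentration required for 50% inhibition of growth.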 Calls of active or inactive are those of the source. No stated cut-off is given here; in the data, active = GI50 up to about 1.1 µM and inactive = higher.

What was measured:
Experiment in all cases: NCI anticancer screen, dose series, 48 h
[1] = tested on: A549
[2] = tested on: HOP-62
[3] = tested on: HL-60
[4] = tested on: OVCAR-4
[5] = tested on: COLO 205
[6] = tested on: NCI-H23
[7] = tested on: EKVX
[8] = tested on: HT-29
[9] = tested on: Malme-3M
[10] = tested on: UACC-257
[11] = tested on: UACC-62
[12] = tested on: SF-539
[13] = tested on: SNB-19
[14] = tested on: HCT-116
[15] = tested on: MDA-MB-231
[16] = tested on: NCI-H460
[17] = tested on: PC-3
[18] = tested on: HCT-15
[19] = tested on: RPMI-8226
[20] = tested on: OVCAR-8

| Compound | GI50 [1] | GI50 [2] | GI50 [3] | GI50 [4] | GI50 [5] | GI50 [6] | GI50 [7] | GI50 [8] | GI50 [9] | GI50 [10] | GI50 [11] | GI50 [12] | GI50 [13] | GI50 [14] | GI50 [15] | GI50 [16] | GI50 [17] | GI50 [18] [µM] | GI50 [19] | GI50 [20] |
| --- | --- | --- | --- | --- | --- | --- | --- | --- | --- | --- | --- | --- | --- | --- | --- | --- | --- | --- | --- | --- |
| COc1ccc2c(c1)CCCN2S(=O)(=O)c1ccccc1[N+](=O)[O-] | 53.7 µM (inactive) | 47.5 µM (inactive) | 4.56 µM (inactive) | 45.7 µM (inactive) | 40.6 µM (inactive) | 46.2 µM (inactive) | 56 µM (inactive) | 21.4 µM (inactive) | 40.8 µM (inactive) | 71.9 µM (inactive) | 47.8 µM (inactive) | 27.7 µM (inactive) | > 73.3 µM (inactive) | 24.2 µM (inactive) | 53.5 µM (inactive) | 26 µM (inactive) | 34.9 µM (inactive) | 14.3 | 29.4 µM (inactive) | 53.7 µM (inactive) |
| COc1ccc2[nH]c3c(C)c4c(c(C)c3c2c1)CN(C)C=C4 | 0.873 µM (active) | 0.679 µM (active) | 22.4 µM (inactive) | 3.95 µM (inactive) | 1.29 µM (inactive) | 0.424 µM (active) | 2.49 µM (inactive) | 3.93 µM (inactive) | 1.21 µM (inactive) | 2.68 µM (inactive) | 3.3 µM (inactive) | 0.366 µM (active) | 0.333 µM (active) | 2.61 µM (inactive) | 12.1 µM (inactive) | 1.32 µM (inactive) | 11.5 µM (inactive) | 23.4 | 7.24 µM (inactive) | 0.309 µM (active) |
| CCC/C(Cl)=N/OC(=O)Nc1cc(C(F)(F)F)ccc1OC | 19.5 µM (inactive) | 18.1 µM (inactive) | 1.77 µM (inactive) | 3.23 µM (inactive) | 1.95 µM (inactive) | 18.7 µM (inactive) | 7.24 µM (inactive) | 20.7 µM (inactive) | 2.92 µM (inactive) | 16.5 µM (inactive) | 15.2 µM (inactive) | 15.3 µM (inactive) | 17.6 µM (inactive) | 9.89 µM (inactive) | 13.1 µM (inactive) | 19.5 µM (inactive) | 16.2 µM (inactive) | 5.31 | 2.33 µM (inactive) | 16.1 µM (inactive) |
| COc1ccc(C2(C3c4cc(OC)c(OC)cc4CCN3C)SCCCS2)cc1O (stereo not drawn) | > 100 µM (inactive) | > 100 µM (inactive) | > 100 µM (inactive) | > 100 µM (inactive) | > 100 µM (inactive) | > 100 µM (inactive) | 60 µM (inactive) | 49.3 µM (inactive) | > 100 µM (inactive) | > 100 µM (inactive) | > 100 µM (inactive) | > 100 µM (inactive) | > 100 µM (inactive) | 67.9 µM (inactive) | > 100 µM (inactive) | > 100 µM (inactive) | 47.1 µM (inactive) | > 100 | > 100 µM (inactive) | > 100 µM (inactive) |
| CN1CCC(CNC(=O)CCCCCCCCC(=O)NCC2(c3ccccc3)CCN(C)CC2)(c2ccccc2)CC1 | > 100 µM (inactive) | > 100 µM (inactive) | > 100 µM (inactive) | > 100 µM (inactive) | 69.7 µM (inactive) |  | 8.22 µM (inactive) | 45.5 µM (inactive) | > 100 µM (inactive) | 38.8 µM (inactive) | > 100 µM (inactive) | 15 µM (inactive) | > 100 µM (inactive) | 60.1 µM (inactive) | > 100 µM (inactive) | > 100 µM (inactive) | > 100 µM (inactive) | > 100 | > 100 µM (inactive) | > 100 µM (inactive) |
| Fc1cc(-c2cc(-c3ccccc3)no2)c(Cl)cc1Cl | 10.3 µM (inactive) | 22.7 µM (inactive) | 19.7 µM (inactive) | 22.9 µM (inactive) | 11.3 µM (inactive) | 14 µM (inactive) | 11.4 µM (inactive) | 15.8 µM (inactive) | 19.2 µM (inactive) | > 56.8 µM (inactive) | 43.2 µM (inactive) | > 12.4 µM (inactive) | > 40.6 µM (inactive) | 13.8 µM (inactive) | 14.1 µM (inactive) | 16.7 µM (inactive) | 13.7 µM (inactive) | 36 | 6.93 µM (inactive) | > 26.8 µM (inactive) |
| C/C(=N/NC(=S)Nc1ccccc1C)c1ccccn1 | 0.0855 µM (active) | 0.0299 µM (active) | 0.0143 µM (active) | 0.279 µM (active) | < 0.0196 µM (active) | < 0.0189 µM (active) | 0.167 µM (active) | 0.0726 µM (active) | 1.6 µM (inactive) | < 0.0208 µM (active) | 0.232 µM (active) | 1.01 µM (active) | 2.43 µM (inactive) | < 0.0152 µM (active) | < 0.0216 µM (active) | 0.0818 µM (active) | < 0.0153 µM (active) | 0.0228 | < 0.0188 µM (active) | 0.107 µM (active) |
| CC(=O)Oc1c(C)c2c(c3ccccc13)OC(C)(C)C2 | 18.1 µM (inactive) | 20.1 µM (inactive) | 22.4 µM (inactive) | 16.1 µM (inactive) | 20.3 µM (inactive) | 14 µM (inactive) | 19.8 µM (inactive) | 18.1 µM (inactive) | 16.3 µM (inactive) | 12.2 µM (inactive) | 16.3 µM (inactive) | 20.4 µM (inactive) | 26.3 µM (inactive) | 18 µM (inactive) | 23.9 µM (inactive) | 19.2 µM (inactive) | 22.6 µM (inactive) | 17 | 15.7 µM (inactive) | 16.8 µM (inactive) |
| C=CCOC(=O)c1c(C)[n+]([O-])c2cc(Cl)c(Cl)cc2[n+]1[O-] | 23 µM (inactive) | 25.5 µM (inactive) | 16.6 µM (inactive) | 7.23 µM (inactive) | 17.9 µM (inactive) | 14.4 µM (inactive) | 18.8 µM (inactive) | 18.2 µM (inactive) | 28.5 µM (inactive) | 18.7 µM (inactive) | 20.2 µM (inactive) | 21.8 µM (inactive) | 74.8 µM (inactive) | 17.8 µM (inactive) | 24 µM (inactive) | 18.7 µM (inactive) | 31.6 µM (inactive) | 13.5 | 12.4 µM (inactive) | 19.4 µM (inactive) |
| c1ccc2c(c1)nc1n2CNCC1 | > 100 µM (inactive) | > 100 µM (inactive) | 68.5 µM (inactive) | > 100 µM (inactive) | > 100 µM (inactive) | > 100 µM (inactive) | > 100 µM (inactive) | 42.2 µM (inactive) | 63.7 µM (inactive) | > 100 µM (inactive) | > 100 µM (inactive) | > 100 µM (inactive) | > 100 µM (inactive) | 43.2 µM (inactive) | > 100 µM (inactive) | > 100 µM (inactive) | > 100 µM (inactive) | 50.2 | 26.4 µM (inactive) | 58.5 µM (inactive) |
| Cc1ccnc2nc(-c3ccc(F)cc3)cc(O)c12 | 54.2 µM (inactive) | 68.7 µM (inactive) | 5.97 µM (inactive) | 77.6 µM (inactive) | 19.5 µM (inactive) | 75.7 µM (inactive) | 79.6 µM (inactive) | 18.7 µM (inactive) | 92.7 µM (inactive) | > 92 µM (inactive) | 16 µM (inactive) | 57.3 µM (inactive) | > 78.7 µM (inactive) | 16.9 µM (inactive) | > 80.7 µM (inactive) | 13.2 µM (inactive) | > 80.4 µM (inactive) | 5.08 | 35.3 µM (inactive) | > 100 µM (inactive) |
| Cc1ccc2nnc(NS(=O)(=O)c3cc(C)c(Cl)cc3S)n2n1 | > 100 µM (inactive) | > 100 µM (inactive) | > 100 µM (inactive) | > 100 µM (inactive) | > 100 µM (inactive) |  | > 100 µM (inactive) | > 100 µM (inactive) | > 100 µM (inactive) | > 100 µM (inactive) | > 100 µM (inactive) | > 100 µM (inactive) | > 100 µM (inactive) | > 100 µM (inactive) | > 100 µM (inactive) | > 100 µM (inactive) | > 100 µM (inactive) | > 100 | > 100 µM (inactive) | > 100 µM (inactive) |
| COC1OC(CO)C(O)C(OC(=O)c2cc(O)c(O)c(O)c2)C1OC(=O)c1cc(O)c(O)c(O)c1 (stereo not drawn) | > 100 µM (inactive) | 91 µM (inactive) | 51.9 µM (inactive) | 23.1 µM (inactive) | 59.8 µM (inactive) | > 100 µM (inactive) | > 100 µM (inactive) | 65 µM (inactive) | > 100 µM (inactive) | 95.3 µM (inactive) | > 10 µM (inactive) | 83.6 µM (inactive) | > 100 µM (inactive) | 37.7 µM (inactive) | > 100 µM (inactive) | 69.5 µM (inactive) | 95.5 µM (inactive) | 66.2 | > 100 µM (inactive) | > 100 µM (inactive) |
| CCOC(=O)c1nc2ccccc2nc1Nc1ccc(F)cc1 | 50.9 µM (inactive) | 15.8 µM (inactive) | > 100 µM (inactive) | > 100 µM (inactive) | > 100 µM (inactive) | 20.8 µM (inactive) | 16.5 µM (inactive) | > 100 µM (inactive) | > 100 µM (inactive) | > 100 µM (inactive) | > 100 µM (inactive) | 14.2 µM (inactive) | 12.1 µM (inactive) | 20.3 µM (inactive) | 8.13 µM (inactive) | 51.6 µM (inactive) | > 86.9 µM (inactive) | 57.5 | > 100 µM (inactive) | 11.5 µM (inactive) |
